ChEMBL document CHEMBL1201862, “PubChem BioAssay data set” (2004)
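48-hour exposure; five concentrations; linearly interpolated endpoints. GI50 = concentration required for 50% inhibition of growth.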 Calls of active or inactive are those of the source. Rule as the data show it: active = GI50 up to about 1.1 µM and inactive = higher.

Key:
Experiment in all cases: DTP human tumour cell line panel, 48 h
[1] = tested on: SW-620
[2] = tested on: A498
[3] = tested on: 786-0
[4] = tested on: UACC-257
[5] = tested on: ACHN
[6] = tested on: HCC 2998
[7] = tested on: NCI-H23
[8] = tested on: SNB-75
[9] = tested on: RPMI-8226
[10] = tested on: HCT-15
[11] = tested on: OVCAR-8
[12] = tested on: NCI-H460
[13] = tested on: HL-60
[14] = tested on: SK-MEL-2
[15] = tested on: KM12
[16] = tested on: COLO 205
[17] = tested on: MOLT-4
[18] = tested on: MDA-MB-435
[19] = tested on: UACC-62
[20] = tested on: IGROV-1
[21] = tested on: HCT-116
[22] = tested on: HOP-62
[23] = tested on: Malme-3M
[24] = tested on: SF-295
[25] = tested on: SF-268
[26] = tested on: Hs-578T
[27] = tested on: SR
[28] = tested on: EKVX
[29] = tested on: LOX IMVI
[30] = tested on: MDA-MB-231
[31] = tested on: NCI-H226
[32] = tested on: DU-145
[33] = tested on: U-251
[34] = tested on: SNB-19
[35] = tested on: K562
[36] = tested on: OVCAR-5
[37] = tested on: OVCAR-3
[38] = tested on: CCRF-CEM
[39] = tested on: HOP-92
[40] = tested on: UO-31
[41] = tested on: A549
[42] = tested on: HT-29
[43] = tested on: PC-3
[44] = tested on: MDA-N
[45] = tested on: T47D
[46] = tested on: OVCAR-4
[47] = tested on: RXF 393
[48] = tested on: SN12C
[49] = tested on: MCF7
[50] = tested on: SK-MEL-5
[51] = tested on: TK-10
[52] = tested on: BT-549
[53] = tested on: SK-OV-3
[54] = tested on: NCI/ADR-RES
[55] = tested on: SF-539
[56] = tested on: SK-MEL-28
[57] = tested on: M14
[58] = tested on: NCI-H522
[59] = tested on: CAKI-1

Measured: GI50

C=C1CCC2C(C)(CO)C(O)CCC2(C)C1C/C=C1\C(=O)OCC1O (stereo not given)
14.6 µM: [10]
active: [27] 1.01 µM
inactive: [1] 9.71 µM | [2] 32.7 µM | [3] 5.4 µM | [4] 20 µM | [5] 29 µM | [6] 22.5 µM | [7] 21.6 µM | [8] 15.4 µM | [9] 5.42 µM | [11] 10.1 µM | [12] 21.2 µM | [13] 16.2 µM | [14] 15.2 µM | [15] 14.1 µM | [16] 14.8 µM | [17] 28.2 µM | [18] 10.3 µM | [19] 18.8 µM | [20] 18.2 µM | [21] 14.7 µM | [22] 28.2 µM | [23] 15.6 µM | [24] 19.9 µM | [25] 31.1 µM | [26] 36.6 µM | [28] 29.3 µM | [29] 12.6 µM | [30] 26.4 µM | [31] 39.8 µM | [32] 38.8 µM | [33] 11.1 µM | [34] 54.8 µM | [35] 3.24 µM | [36] 17.1 µM | [37] 9.4 µM | [38] 3.87 µM | [39] 27.8 µM | [40] 36.3 µM | [41] 23.8 µM | [42] 5.28 µM | [43] 20.1 µM | [44] 9.31 µM | [45] 24.7 µM | [46] 11.1 µM | [47] 18.7 µM | [48] 15.2 µM | [49] 15.7 µM | [50] 14.1 µM | [51] 52.8 µM | [52] 7.53 µM | [53] 24 µM | [54] 25 µM | [55] 20.6 µM | [56] 13.9 µM | [57] 17.8 µM | [58] 10.4 µM

CC1(C)C(c2ccccc2)=[N+]([O-])C(C)(C)N1O
> 10 µM: [10]
inactive: [1] > 10 µM | [2] > 10 µM | [3] > 10 µM | [4] > 10 µM | [5] > 10 µM | [6] > 10 µM | [7] > 10 µM | [8] > 10 µM | [9] > 10 µM | [11] > 10 µM | [12] > 10 µM | [13] > 10 µM | [14] > 10 µM | [15] > 10 µM | [16] > 10 µM | [17] > 10 µM | [18] > 10 µM | [19] > 10 µM | [20] > 10 µM | [21] > 10 µM | [22] > 10 µM | [23] > 10 µM | [24] > 10 µM | [25] > 10 µM | [26] > 10 µM | [27] > 10 µM | [28] > 10 µM | [29] > 10 µM | [30] > 10 µM | [31] > 10 µM | [32] > 10 µM | [33] > 10 µM | [34] > 10 µM | [36] > 10 µM | [37] > 10 µM | [38] > 10 µM | [39] > 10 µM | [41] > 10 µM | [42] > 10 µM | [43] > 10 µM | [44] > 10 µM | [45] > 10 µM | [46] > 10 µM | [47] > 10 µM | [48] > 10 µM | [49] > 10 µM | [50] > 10 µM | [51] > 10 µM | [52] > 10 µM | [53] > 10 µM | [54] > 10 µM | [59] > 10 µM | [55] > 10 µM | [56] > 10 µM | [57] > 10 µM | [58] > 10 µM
